# Measurements taken from the METLIN SMRT retention time set (Domingo-Almenara et al. 2019).
# Test: gradient 5% acetonitrile 3 min, to 50% in 2 min, to 85% in 15 min, held 3 min, 100 µL/min
# Conditions: column: Zorbax Extend-C18 2.1 x 50 mm; eluents: water / acetonitrile, 0.1% formic acid
# Method in brief: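 Over 3 months, pure standards in mixtures of ~100 molecules were run by HPLC coupled to a quadrupole time-of-flight mass spectrometer in positive and negative ionization mode. The column was a Zorbax Extend-C18 (2.1 × 50 mm, 1.8 μm) at 100 μL/min, eluted with water and acetonitrile each holding 0.1% formic acid, with 40 μL dead and 900 μL dwell volumes. Retention time was determined from adduct peaks chosen by software and checked manually.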
row,Compound,RP-LC retention time [s]
1,Cc1cnc(C2CCC2)n1CCNC(=O)C1(c2ccccc2)CC1,654
2,N#Cc1ccsc1NC(=O)c1ccc(S(=O)(=O)N2CCOCC2)cc1,749
3,O=C(NCCC1=CCCCC1)C1CCN(C(=O)c2ncn3c2COC(c2ccccc2)C3)CC1 (stereo not given),820
4,O=C(Cn1nc2c(N3CCCCCC3)nccn2c1=O)Nc1ccc(Cl)cc1F,786
5,O=C(c1cc(Br)ccc1Cl)N1CCN(c2ccc(-n3ccnc3)nn2)CC1,575
6,O=C(Cc1csc2nc(-c3cccc(Br)c3)cn12)NCCC1=CCCCC1,1050
7,O=C(NCc1ccc(Cl)cc1)C1=C2CCCN2c2ccc(F)cc2S1(=O)=O,941
8,O=C(NC1CCCCCC1)C1CC(=O)N(CCc2c[nH]c3ccc(Cl)cc23)C1 (stereo not given),871
9,Cc1ccc(S(=O)(=O)N2CC=C(N)N2)cc1,684
10,CN(Cc1nc(-c2ccc(N3CCCCC3)nc2)no1)C1CCCCC1,666
11,Cc1nn(C)c(C)c1S(=O)(=O)N1CCCC(OCc2noc(C3CCOCC3)n2)C1 (stereo not given),716
12,O=C(Nc1cc(-c2ccccn2)no1)C1CCCCC1,827
13,Cc1cccc(NC(=O)C2CCCN(c3cc(=O)n(C)c(=O)n3C)C2)c1 (stereo not given),735
14,COCC(=O)N1CCc2c(sc3ncnc(N4CCOCC4)c23)C1,623
15,COc1ccc(NC(=O)NCC23CCCC=C2NC(=O)CC3)cc1 (stereo not given),593
16,Cn1c(=O)c2c(ncn2CC(=O)Nc2nccs2)n(C)c1=O,576
17,O=C(NCCCN1CCN(C2CCCCC2)CC1)c1ccc2c(c1)NC(=O)C1CCCCN21 (stereo not given),576
18,CN(C)C(=O)c1cccnc1OC1CCN(C(=O)c2cccc(Br)c2)C1 (stereo not given),709
19,CCCN1CCN(Cc2nc(-c3ccc(N4CCSCC4)nc3)no2)CC1,615

row,Compound,RP-LC retention time [s]
1,Cn1cnc(S(=O)(=O)N2CCC(C(=O)NC3CCCCC3)CC2)c1,659
2,CC1=C(c2ccccc2)S(=O)(=O)N=C1N1CCCN(C(=O)NC(C)(C)C)CC1,790
3,O=C(NC1CCN(c2cc(-c3ccc(Cl)cc3)[nH]n2)C1)c1ccc2[nH]ccc2c1 (stereo not given),742
4,O=C1C[C@@H](c2ccc(O)c(O)c2)Oc2cc(O[C@H]3O[C@@H](CO)[C@H](O)[C@@H](O)[C@@H]3O)cc(O)c21,723
5,CCN(CC)CCn1c(NCc2ccc(Br)cc2)nc2ccccc21,581
6,O=c1ccc(N2CCC(NS(=O)(=O)c3ccc(Cl)s3)CC2)nn1CC1CC1,875
7,O=C(Nc1cnc(N2CCCC2)nc1)c1ccc(F)cc1,710
8,O=C(NCc1ccco1)N1CCN(Cc2nc3cccnc3n2-c2ccccc2)CC1,620
9,Cc1ccc(S(=O)(=O)N(C)c2ccccc2)s1,901
10,CCC1CN(C(=O)N2CCC(C(=O)NCCN3CCN(CC)CC3)CC2)c2ccccc2O1 (stereo not given),617
11,COc1ccc2c(c1O)-c1cccc3c1[C@@H](C2)N(C)CC3,643
12,Cc1ccc(CNCCSc2nnnn2C)s1,580
13,CCCn1cc(C(=O)N2CCOCC2)c2cccnc21,640
14,CC(C)CCNC(=O)C1CCCN(c2nc3ccsc3c(=O)n2Cc2ccccc2)C1 (stereo not given),955
15,COCCN1C(=O)[C@H]2CN(Cc3ccc(C)cc3)C[C@H]2C1=O,616
16,Cc1ccc(-c2noc(-c3ccccc3S(=O)(=O)N3CC=C(c4ccccc4)CC3)n2)cc1,1350
17,CCC(=O)N1CCC2(CC1)CC1C(=O)N(CC)C(=O)N1C2 (stereo not given),626
18,CCOC(=O)c1c(S(=O)(=O)N2CCC(C(=O)NCc3cccc(C)c3)CC2)c(C)n(C)c1C,841
19,c1ccc(-c2noc(-c3ccc(N4CCN(C5CCCCC5)CC4)nc3)n2)cc1,772

row,Compound,RP-LC retention time [s]
1,CC1CCN(CCNC(=O)c2nnc(-c3ccc(S(=O)(=O)N4CCCCC4)cc3)o2)CC1,663
2,O=C(NCCCN1CCOCC1)C1CCc2sc(C(=O)N3CCCC3)cc2C1 (stereo not given),576
3,CC(C)c1cccc(NC(=O)c2cn(C)nc2S(=O)(=O)N2CCSCC2)c1,1090
4,CC(=O)N1CCc2cc(N3CC(C(=O)Nc4cc(C)ccc4F)CC3=O)ccc21 (stereo not given),743
5,COCc1ncc(C)n1CC1CCN(S(=O)(=O)c2cccc3nsnc23)CC1,641
6,Cc1ccc(Sc2nccnc2N2CCCC(C(=O)N3CCN(c4ccccc4)CC3)C2)cc1 (stereo not given),1220
7,CC(C)CCNC(=O)C1CCCN(c2cc(=O)n(C)c(=O)n2C)C1 (stereo not given),677
8,CCOc1ccccc1C(=O)N(C)CC1(C)CCOCC1,794
9,CC(=O)N1CCc2ccccc2C1C(=O)N1CCN(c2ccc(F)cc2)CC1 (stereo not given),576
10,Cc1c(Cl)cccc1NC(=O)N(C)CC1CCOC1 (stereo not given),720
11,Cc1nc(-c2cc(S(=O)(=O)N(Cc3ccccc3)C(C)C)c(C)s2)sc1C,978
12,O=C(O)c1ccccc1-c1ccccc1C(=O)Nc1nc2ccccc2s1,867
13,Cc1cc(C)n(CCC(=O)NCC2Cn3cccc3C(=O)N2C)n1 (stereo not given),593
14,OC[C@H]1O[C@@H](n2cnc3c(NC4CCCCC4)ncnc32)[C@H](O)[C@@H]1O,656
15,Cc1nc2cccnc2n1C1CCN(C(=O)Nc2ccc(F)cc2F)CC1,619
16,CON=C(C(=O)N[C@@H]1C(=O)N2C(C(=O)O)=C(CSc3nnnn3C)CS[C@H]12)c1csc(N)n1,621
17,Cc1ccccc1N1CCN(S(=O)(=O)c2cc(-c3nnc(C4CC4)o3)co2)CC1,1090
18,CCN1c2ccccc2C(=O)NC12CCN(C(=O)c1cccc(OC)c1)CC2,752
19,CCn1nccc1C(=O)N1CCC(Nc2ncnc3c2CCC3)CC1,557

# The next lines start with the values.
row,RP-LC retention time [s],Compound
1,625,COc1ccc(C(=O)Nc2c(-c3ccc(F)cc3)nc3ccccn23)cc1OC
2,1110,COC(=O)c1ccccc1NC(=O)Cn1cnc2c(sc3nc(-c4ccccc4)ccc32)c1=O
3,868,CN(CCc1noc(-c2ccc(Cl)cc2)n1)C(=O)NCc1ccco1
4,681,CN1CCN(S(=O)(=O)c2ccc(Cl)c(-c3nnc(-c4ccccc4)o3)c2)CC1
5,620,COCc1nncn1C1CN(C(=O)Cc2cc(OC)cc(OC)c2)C1
6,989,Cc1ccc(NS(=O)(=O)c2c(-c3nc(C4CCC4)no3)c(C)n(C)c2C)cc1
7,737,O=C(Nc1ccccc1F)N1CCN(Cc2nc3cc(Cl)ccc3o2)CC1
8,903,Cc1ccc(N2CCC(NC(=O)Nc3cc(F)cc(F)c3)C2=O)cc1C (stereo not given)
9,1300,CC(C)(C)c1ccc(OCCCC(=O)Nc2nc(-c3ccccc3)cs2)cc1
10,898,Cc1noc(-c2ccc(OC3CN(C(=O)c4cccn4C)C3)cc2)n1
11,754,Cc1nnc(-c2ccc3ccn(CC(=O)NCCC(C)C)c3c2)o1
12,686,COc1ccc2[nH]cc(CCn3ccc4c(nnc5ccnn54)c3=O)c2c1
13,720,COC(=O)c1ccc(NS(=O)(=O)c2cc(-c3c(C)noc3NC(C)=O)ccc2OC)cc1
14,1090,C=CCN(Cc1nc(-c2cccc(C)c2)no1)C(=O)Nc1cccc(C)c1
15,589,COc1ccc(S(=O)(=O)NCCCn2ccnc2)cc1C(C)(C)C
16,645,Cc1nc2cc3c(cc2n1CC(=O)NCc1ccccc1Cl)OCCO3
17,1130,CCOc1ccccc1-c1noc(CN2C(=O)C(C)Oc3ccccc32)n1 (stereo not given)

row,RP-LC retention time [s],Compound
1,777,CCc1nnc(-c2ccc3ccn(CC(=O)Nc4cc(OC)c(OC)c(OC)c4)c3c2)o1
2,887,O=[N+]([O-])c1cccc(-c2nnc(-c3ccccc3)o2)c1
3,810,Cc1ccc(C(=O)NCc2nn(C)c3ccccc23)cc1
4,1060,CCc1ccc(N2C(=O)C3N=NN(Cc4nc(-c5ccccc5Cl)no4)C3C2=O)cc1 (stereo not given)
5,758,Cc1cccc(C)c1NC(=O)Cn1cnc2nc3c(cc2c1=O)CC(C)CC3 (stereo not given)
6,652,Cc1ccc2oc(C(=O)NCc3c(F)cccc3F)cc2n1
7,720,CCn1c(=O)c(NCc2ccc(C(C)C)cc2)nc2ccncc21
8,1120,COc1ccc2c(c1)-c1nc(NC(=O)c3cccc(F)c3)sc1CC2
9,941,Cc1ccccc1-n1ncc2c(C)nn(CC(=O)Nc3cccc(C(F)(F)F)c3)c(=O)c21
10,580,CCN1CCN(CC(=O)Nc2ccc(C(C)=O)cc2)C(=O)C1=O
11,588,CCc1cc(C2CCCN2Cc2ccc(OC)c(O)c2)on1 (stereo not given)
12,943,COC(=O)c1ccccc1NC(=O)N(Cc1cc(=O)[nH]c2ccccc12)CC(C)C
13,804,COCc1nc(N(C)Cc2ccccc2)ncc1C(=O)O
14,1240,COc1cc(Nc2nc3ccccc3nc2NS(=O)(=O)c2ccc(NC(=O)c3ccc(C)c(OC)c3)cc2)cc(OC)c1
15,894,COc1ccc(CNC(=O)c2cc3sccc3n2C)cc1
16,766,CCOC(=O)c1ccc(NC(=O)CN2CCN(Cc3ccccc3)C(=O)C2=O)cc1
